# Paper PMC3794980, “Identification of Conserved and HLA Promiscuous DENV3 T-Cell Epitopes” (PLoS Neglected Tropical Diseases, 2013)
# Like-named read-outs stand apart in the source and are kept apart here. Where no end group is shown, it is not given here.
# Biological target: T1, HLA-A*0201 (HLA-A2:Ig fusion protein) (Homo sapiens, UniProt P04439, D140Y/D185E/D98H/E176V/E277Q/G131W/G231S/I119V/I121R/I166T/I218V/L300P/L318F/N151K/N90K/P208A/P217A/Q86G/Q94H/R138H/R169H/T345S)
# T1 construct: two extracellular portions of the major histocompatibility complex (MHC) class I HLA-A2 domains fused to the […] of a mouse IgG1 antibody; purchased BD Biosciences (HLA-A2:Ig); Fitzgerald Industries (β2-microglobulin)
# Experiment: Competitive binding assay using HLA-A2:Ig fusion protein (fluorescence polarization)
# Description: The labeled peptide ([…]) was commercially synthesized by GenScript Corporation as a reference peptide for the binding assay. A fluorescein moiety was introduced into position P8 of the designed peptide ([…]). […] The lyophilized labeled peptide was diluted in 100% DMF (Dimethylformamide) to a final concentration of 10 mM. Subsequent dilutions were carried out using 0.5 mg/ml bovine-γ-globulin (BGG) in 1×PBS.
# Soluble HLA-A2:Ig dimer complexes were obtained from BD Biosciences. This fusion protein consists of two extracellular portions of the major histocompatibility complex (MHC) class I HLA-A2 domains fused to the […] of a mouse IgG1 antibody. Additional β2-microglobulin (Fitzgerald Industries) was added to the binding assays to retain the fusion protein in a functional state. […] The competitive binding assays were carried out at room temperature for an incubation period of 3 days.
# Both labeled and unlabeled peptides were added to the reaction mixture before the HLA-A2:Ig fusion protein, ensuring that both peptides were presented simultaneously to the HLA molecule. To avoid peptide photobleaching, the reaction mixture was incubated within aluminum foil covered microcentrifuge tubes. After the 3 days incubation period, 20 µl of the reaction mixture was loaded into individual wells of a black, non-binding surface (NBS) 384 well plate (Corning). Controls included only buffer (blank), protein and pFITC. Each experiment was performed in quadruplicate and reported as the mean with standard deviation.
# [1] = predicted 9-mer tested, fluorescence polarization competition with fluorescein-labeled […], room temperature, 3 days, quadruplicate, read-out: Binding affinity
Compound,IC50 [1] [nM],also measured
CC(C)C[C@H](NC(=O)[C@@H](N)CCCCN)C(=O)N[C@@H](CC(N)=O)C(=O)N[C@@H](CC(=O)O)C(=O)N[C@@H](Cc1c[nH]c2ccccc12)C(=O)N[C@@H](CC(=O)O)C(=O)N[C@@H](Cc1ccccc1)C(=O)N[C@H](C(=O)N[C@H](C(=O)O)C(C)C)C(C)C [NS3_399–407],110,
GLFGKGSLV,2.9,
KLTDWDFVV [DENV4],,IC50: 61 nM
RTNDWDFVV [DENV2 (1)],,IC50 (read-out: IC50): 167 nM
